Data reported in patent publication US10253037B2, “Drug with antiviral activity (variants)” (priority 2015, dated 2019).

What was measured:
[1] = test system: MT-4 human lymphoblastoid cells; test: Cytotoxic effect of the drug on uninfected MT-4 cells (viability by dye); assay type: cell-based; details: 5 days
Protocol: Cells. MT-4 human lymphoblastoid cells were used. […] The drug. Samples of drugs dissolved in dimethylsulfoxide were studied. Study of the cytotoxic effect of the drug. The investigated medicinal product was added to the cells in various concentrations. […] Recording of the results: determination of the viability and the number of the cells by means of a dye.

HIV-1899A strain [2] = test: Antiviral effect in MT-4 cells infected with HIV-1 (MTT, cytopathic effect, syncytium); assay type: cell-based; details: 0.01 TCD50/cell, 5 days
Protocol: Cells. MT-4 human lymphoblastoid cells were used. The cells were incubated in RPMI 1640 medium with 10% serum of cow embryos, 100 μg/ml of gentamicin.
Viruses. HIV-1899A strain was used as the source of the virus.
The drug. Samples of drugs dissolved in dimethylsulfoxide were studied.
Study of the antiviral effect of the drug.
(§1) The investigated medicinal products were added to the cells at various doses with simultaneous infection with the virus at a dose of 0.01 TCD50/cell. The cell cultures were incubated at 37° C. in the atmosphere with 5% of CO2 and at 98% humidity for 5 days. The results were recorded by staining the cells with tetrazolium dye (MTT method) with spectrophotometry and light microscopy: investigation of cytopathic effect of the virus (CPD) and virus-induced formation of syncytium (syncytium is a conglomerate of several cells with a common cell membrane formed as a result of fusion of their membranes).
The degree of protection of cells from the cyto-destructive effect of the virus was determined by the following formula:
[formula] where • A is the number of viable cells in the experimental group; • B is the same in the infected culture (virus control); • K is the same in the uninfected culture (cell control).

Hepatitis B virus (HBV) = test: Amount of extracellular HBV DNA in HepG2.2.15 culture medium (RT-PCR); assay type: cell-based; details: 5 μg/ml, HepG2.2.15 cells, 5 days; untreated control 4.42 +/− 0.28
Protocol: HepG2.2.15 line cells infected with Hepatitis B virus were grown in DMEM medium supplemented with 10% bovine serum at 5% CO2, 37° C.
Analysis of the amount of extracellular HBV of the DNA.
After 5 days of HepG2.2.15 incubation the culture medium was selected, the cells were separated by centrifugation, and the DNA was isolated by the Klintschar and Neuhuber method (Klintschar and Neuhuber, 2000). Quantitation of HBV was performed using RT-PCR.

HIV-1899A strain [3] = test: Joint action with anti-HIV drugs: cell protection in HIV-1 infected MT-4 cells (MTT); assay type: cell-based
Protocol: MT-4 human lymphoblastoid cells were used. The cells were cultured in RPMI 1640 medium with 10% serum of cow embryos, 100 μg/ml gentamicin.
The strain of HIV-1899A was used as a source of the virus.
The drug. Samples of drugs dissolved in dimethylsulfoxide were studied. As an antiretroviral reference drug, Raltegravir (prototype) was used.
Study of the antiviral action of the drug (cell protection).
as §1, with “drugs” for “medicinal products”, “Cell” for “The cell”, “5%” for “5% of”, “and” for “and at”

SMILES	Without virus (cytotoxicity) Viability of cells, % ([1]; 10 μg/ml) [%]	Without virus (cytotoxicity) Viability of cells, % ([1]; 30 μg/ml) [%]	Without virus (cytotoxicity) Viability of cells, % ([1]; 50 μg/ml) [%]	HIV 1 infection Cytopathic effect of the virus, % (HIV-1899A strain [2]; 10 μg/ml)	HIV 1 infection Protection of cells, % (HIV-1899A strain [2]; 10 μg/ml) [%]	HIV 1 infection Cytopathic effect of the virus, % (HIV-1899A strain [2]; 30 μg/ml)	HIV 1 infection Protection of cells, % (HIV-1899A strain [2]; 30 μg/ml) [%]	HIV 1 infection Cytopathic effect of the virus, % (HIV-1899A strain [2]; 50 μg/ml)	HIV 1 infection Protection of cells, % (HIV-1899A strain [2]; 50 μg/ml) [%]	HBV Log10 IU/ml (amount of extracellular DNA HBV) (Hepatitis B virus (HBV))	Protection of cells, % (HIV-1899A strain [3]; Raltegravir alone, 10 μg/ml) [%]	Protection of cells, % (HIV-1899A strain [3]; Lopinavir alone, 2.5 μg/ml) [%]	Protection of cells, % (HIV-1899A strain [3]; Retrovir alone, 0.003 μg/ml) [%]	melting point
O=[N+]([O-])c1ccc(C2c3c(O)nc(Cl)nc3Oc3nc(Cl)nc(O)c32)cc1 [Derivative 1]	100.0	100.0	100.0	0.0-0.0%	100	0.0-0.0%	90	0.0-0.0%	100	2.58 +/− 0.33 Log10 IU/ml	–	–	–	–
COc1ccc(C2c3c(O)nc(Cl)nc3Oc3nc(Cl)nc(O)c32)cc1 [Derivative 7]	100.0	100.0	100.0	12-65%	45	5-15%	80	0.0-0.0%	100	2.74 +/− 0.25 Log10 IU/ml	–	–	–	–
Oc1nc(Cl)nc2c1C(c1ccccc1)c1c(O)nc(Cl)nc1O2 [Derivative 5]	100.0	100.0	100.0	0.0-0.0%	100	57.5-80.0%	10.7	37.5-62.5%	71.7	–	–	–	–	–
O=[N+]([O-])c1ccc(C2c3c(O)nc(S)nc3Oc3nc(Cl)nc(O)c32)cc1 (stereo not shown) [Derivative 2, 2-chloro-8-sulfhydryl-5-(4-nitrophenyl)-5H-pyrimido [5′,4′:5,6]pyrano[2,3-d]pyrimidine-4.6-diol]	100.0	100.0	100.0	0.0-0.0%	100	96-100%	0	55-80%	10	2.65 +/− 0.19 Log10 IU/ml	–	–	–	–
Cc1nnc(C(=O)NC(C)(C)c2nc(C(=O)NCc3ccc(F)cc3)c(O)c(=O)n2C)o1 [Raltegravir, reference compound]	–	–	–	0.0-0.0%	90	0.0-0.0%	100	0.0%	–	–	23	–	–	–
Oc1nc(Cl)nc2c1C(c1cccc(Cl)c1)c1c(O)nc(Cl)nc1O2 [Derivative 6]	100.0	100.0	100.0	57.5-80.0%	10.7	37.5-62.5%	71.7	0.0-0.0%	90.5	–	–	–	–	–
Cc1cccc(C)c1OCC(=O)N[C@@H](Cc1ccccc1)[C@@H](O)C[C@H](Cc1ccccc1)NC(=O)[C@H](C(C)C)N1CCCNC1=O [Lopinavir]	–	–	–	–	–	–	–	–	–	–	–	17	–	–
Cc1cn([C@H]2C[C@H](N=[N+]=[N-])[C@@H](CO)O2)c(=O)[nH]c1=O [Retrovir]	–	–	–	–	–	–	–	–	–	–	–	–	13	–
O=[N+]([O-])c1ccc(C2C3=C(O)NC(O)(S)N=C3Oc3nc(Cl)nc(O)c32)cc1 (stereo not shown) [Derivative 4, 2-chloro-8-sulfhydryl-5-(4-nitrophenyl)-5H-pyrimido [5′,4′:5,6]pyrano[2,3-d]pyrimidine-4,6,8-triol]	100.0	100.0	100.0	0.0-0.0%	95	15-60%	50	0.0-0.0%	90	–	–	–	–	270 °C (dec.)
O=[N+]([O-])c1ccc(C2c3c(O)nc(Cl)nc3Oc3nc(Cl)nc(Cl)c32)cc1 (stereo not shown) [Derivative 3, 2,6,8-trichloro-5-(4-nitrophenyl)-5H-pyrimido [5′, 4′:5,6] pyrano [2,3-d] pyrimidin-4-ol]	100.0	100.0	100.0	15-70%	50	18-92%	30	10-40%	65	–	–	–	–	265 to 267 °C
